# Patent US9751885B2, “Cyclopropanamine compound and use thereof” (Takeda Pharmaceutical Company Limited, priority 2012, dated 2017)
# Structures can show the parent of a compound that is named as a salt. Where two headings read alike, the source gives them in different places. Marks after values point to notes of the source that are not given here.
# Legend:
# [1] = system: Gad1 H3K4me2 level in rat primary culture neurons; assay: Gad1 H3K4 methylation induction activity in rat primary culture neurons (ChIP-qPCR); type: cell-based; details: control without compound = 100%; for activity at 1 µM / activity at 10 µM: Rattus norvegicus, Neuron, 72 h; for activity at 1 µM: read-out: Gad1 H3K4me2 induction activity (%), compound 1 μM, 3 days, rat primary culture neurons; for activity at 10 µM: read-out: Gad1 H3K4me2 induction activity (%), compound 10 μM, 3 days, rat primary culture neurons; for Gad1 H3K4me2 induction activity (%): 3 days, rat primary culture neurons
# Procedure: Gad1 H3K4 Methylation Induction Activity in Rat Primary Culture Neurons
# Thereafter, the compound was added to final concentrations of 1 or 10 μM, and the cells were further cultured for 3 days. The culture supernatant was aspirated, ice-cold PBS was added, and the cell suspension was collected on ice using CELL SCRAPER (IWAKI). […] (750 μL). Furthermore, 0.3% NP40/cell lysis buffer 1 (750 μL) was added, and the cells were lysed by incubating for 5 min on ice.
# Using the DNA obtained by the chromatin immunoprecipitation as a template, quantitative PCR of the Gad1 gene upstream genomic region was performed, and the measurement value was taken as the Gad1 H3K4me2 level. […] The Gad1 H3K4me2 induction by the compound was expressed by the H3K4me2 level when the compound was added, as compared to the H3K4me2 level of the control (without addition of the compound) as 100%.
# [2] = system: white blood cell number, red blood cell number, platelet number; assay: Evaluation of blood cell number in mouse; type: in vivo; details: oral, Day 2 after administration
# Summary of the method: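 Male ICR mice dosed orally at 1, 10, 50 or 100 mg/kg (suspension in 0.5% methylcellulose/0.02% citric acid/water); whole blood collected on Day 2. White cell, red cell and platelet counts per unit volume by automated haematology analyser, expressed as % of mean of untreated control group.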
# human LSD1(172-833) = human LSD1(172-833) (Homo sapiens (Human), UniProt O60341); assay: Measurement of LSD1 inhibitory activity (time-resolved fluorescence, biotin-histone H3 mono methylated K4 peptide); type: biochemical
# Summary of the method: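 Remaining signal detected by TR-FRET after 60 min with europium anti-histone H3 antibody and streptavidin-XL665 in potassium fluoride/0.1% BSA.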
# MAO-A enzyme = MAO-A enzyme (Homo sapiens (Human), UniProt P21397); assay: Measurement of MAO-A inhibitory activity (MAO-Glo Assay); type: biochemical
# MAO-A enzyme, sequence (P21397 whole entry): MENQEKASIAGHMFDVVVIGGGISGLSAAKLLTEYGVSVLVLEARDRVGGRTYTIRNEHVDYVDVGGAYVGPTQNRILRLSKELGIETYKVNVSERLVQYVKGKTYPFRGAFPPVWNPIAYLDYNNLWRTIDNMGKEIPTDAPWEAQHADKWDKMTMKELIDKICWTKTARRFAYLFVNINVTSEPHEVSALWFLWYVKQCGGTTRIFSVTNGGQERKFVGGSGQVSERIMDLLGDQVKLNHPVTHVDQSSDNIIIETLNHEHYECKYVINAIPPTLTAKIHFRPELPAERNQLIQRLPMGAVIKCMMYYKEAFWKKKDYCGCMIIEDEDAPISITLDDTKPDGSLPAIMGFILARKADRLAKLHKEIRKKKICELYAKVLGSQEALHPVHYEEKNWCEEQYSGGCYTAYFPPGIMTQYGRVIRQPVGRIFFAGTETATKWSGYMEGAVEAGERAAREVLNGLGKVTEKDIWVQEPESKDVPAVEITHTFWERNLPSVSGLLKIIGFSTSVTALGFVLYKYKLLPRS
# Procedure: The MAO-A inhibitory activity evaluation described below followed the protocol of MAO-Glo (registered trademark) Assay of Promega KK.
# A test compound dissolved in 4% DMSO was added by 12.5 μL to 25 μL reaction solution (100 mM HEPES (pH 7.5), 5% glycerol) containing 400 ng of MAO-A enzyme (Sigma-Aldrich Co. LLC.), and the mixture was reacted at room temperature for 10 min. […] After reaction at room temperature for 60 min, Luciferine detection reagent (Promega KK) (50 μL) was added to terminate the reaction. After reaction at room temperature for min with stirring, the luminescence was measured by Envision (PerkinElmer). The MAO-A inhibitory rate (%) of the test compound was calculated by the following formula. inhibitory rate(%)=(1−(test compound count−blank)÷(control−blank))×100
# The count of the MAO-A enzyme reaction mixture under compound non-addition conditions is indicated as control, and the count under compound non-addition and MAO-A enzyme non-addition conditions is indicated as blank.
# MAO-B enzyme = MAO-B enzyme (Homo sapiens (Human), UniProt P27338); assay: Measurement of MAO-B inhibitory activity (MAO-Glo Assay); details: read-out: MAO-B IC50 value;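 further: luminescence read-out, compound preincubated 10 min with enzyme then reacted 60 min at room temperature, inhibition relative to enzyme reaction without compound, blank lacking enzyme and compound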
# MAO-B enzyme, sequence (P27338 whole entry): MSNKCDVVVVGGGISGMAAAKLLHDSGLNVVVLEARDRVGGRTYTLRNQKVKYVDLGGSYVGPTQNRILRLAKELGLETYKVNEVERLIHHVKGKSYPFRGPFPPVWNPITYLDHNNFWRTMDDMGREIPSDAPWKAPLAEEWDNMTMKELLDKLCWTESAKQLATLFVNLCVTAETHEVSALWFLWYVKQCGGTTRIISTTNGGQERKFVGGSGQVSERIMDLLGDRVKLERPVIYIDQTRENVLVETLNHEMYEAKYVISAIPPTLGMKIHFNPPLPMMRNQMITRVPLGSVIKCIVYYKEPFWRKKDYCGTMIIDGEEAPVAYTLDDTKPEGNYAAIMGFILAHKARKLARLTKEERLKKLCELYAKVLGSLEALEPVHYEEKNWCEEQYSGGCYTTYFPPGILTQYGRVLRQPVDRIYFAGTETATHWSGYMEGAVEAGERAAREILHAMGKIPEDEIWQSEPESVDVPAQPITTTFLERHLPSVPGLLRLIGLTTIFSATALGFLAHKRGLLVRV
# [3] = Evaluation of hippocampal distribution in mouse; type: in vivo; details: male ICR mice, 10 mg/kg oral
# Summary of the method: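 Male ICR mice dosed orally at 10 mg/kg as suspension in 0.5% methylcellulose/0.02% citric acid/water. Plasma and hippocampus sampled together at 0.5, 1 or 1.5 h; LC/MS/MS concentrations gave hippocampus/plasma ratio.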
# [4] = hippocampus, 1 hr after administration, read-out: hippocampus concentration (mean)
# [5] = plasma, 1 hr after administration, read-out: plasma concentration (mean)
# [6] = hippocampus, 0.5 hr after administration, read-out: hippocampus concentration (mean)
# [7] = plasma, 0.5 hr after administration, read-out: plasma concentration (mean)
SMILES,activity at 1 µM [1],activity at 10 µM [1],"platelet number, percentage of compound administration group compared to control group, mean ([2]; 10 mg/kg)","red blood cell number, percentage of compound administration group compared to control group, mean ([2]; 10 mg/kg)","white blood cell number, percentage of compound administration group compared to control group, mean ([2]; 10 mg/kg)","platelet number, percentage of compound administration group compared to control group, mean ([2]; 100 mg/kg)","red blood cell number, percentage of compound administration group compared to control group, mean ([2]; 100 mg/kg)","white blood cell number, percentage of compound administration group compared to control group, mean ([2]; 100 mg/kg)",IC50 (human LSD1(172-833)),IC50 (MAO-A enzyme),IC50 (MAO-B enzyme),also measured
"Cn1cc(NC(=O)c2cccc([C@@H]3C[C@H]3NCC3CC3)c2)cn1 (relative stereo) [Example 59, 3-(trans-2-((cyclopropylmethyl)amino)cyclopropyl)-N-(1-methyl-1H-pyrazol-4-yl)benzamide dihydrochloride]",206%,161%,91.9%,101.1%,128.1%,91.2%,93.3%,98.8%,–,–,–,–
"O=C(Nc1cnn(CC2CC2)c1)c1cccc([C@@H]2C[C@H]2NCC2CCOCC2)c1 (relative stereo) [Example 87, N-(1-(cyclopropylmethyl)-1H-pyrazol-4-yl)-3-(trans-2-((tetrahydro-2H-pyran-4-ylmethyl)amino)cyclopropyl)benzamide dihydrochloride]",–,–,111.7%,96.8%,94.6%,105.2%,100.7%,101.1%,< 0.1 µM,> 10 µM,> 10 µM,"concentration at 1 h [3, 4]: 43 ng/g; concentration at 1 h [3, 5]: 251 ng/mL"
"Cn1cc(NC(=O)c2cccc([C@@H]3C[C@H]3NCC(C)(C)C)c2)cn1 (relative stereo) [Example 155, 3-(trans-2-((2,2-dimethylpropyl)amino)cyclopropyl)-N-(1-methyl-1H-pyrazol-4-yl)benzamide dihydrochloride]",104%,106%,–,–,–,–,–,–,–,–,–,–
"Cc1nnc(NC(=O)c2cccc([C@@H]3C[C@H]3NC3CCC(F)(F)CC3)c2)s1 (relative stereo) [Example 166, 3-(trans-2-((4,4-difluorocyclohexyl)amino)cyclopropyl)-N-(5-methyl-1,3,4-thiadiazol-2-yl)benzamide dihydrochloride]",98%,147%,–,–,–,–,–,–,–,–,–,–
"Cc1nnc(NC(=O)c2ccc(C)c([C@@H]3C[C@H]3NC3CCOCC3)c2)s1 (relative stereo) [Example 184, 4-methyl-N-(5-methyl-1,3,4-thiadiazol-2-yl)-3-(trans-2-(tetrahydro-2H-pyran-4-ylamino)cyclopropyl)benzamide dihydrochloride]",136%,122%,–,–,–,–,–,–,–,–,–,–
"Cc1cc(NC(=O)c2cccc([C@@H]3C[C@H]3NCC3CCOCC3)c2)no1 (relative stereo) [Example 231, N-(5-methyl-1,2-oxazol-3-yl)-3-(trans-2-((tetrahydro-2H-pyran-4-ylmethyl)amino)cyclopropyl)benzamide]",–,–,93.7%,99.7%,75.7%,90.4%,95.0%,77.1%,< 0.1 µM,> 10 µM,> 10 µM,"concentration at 1 h [3, 4]: 527 ng/g; Kp at 1 h ([3]; hippocampus/plasma, 1 hr after administration, read-out: hippocampus/plasma concentration ratio (mean)): 4.5; concentration at 1 h [3, 5]: 117 ng/mL"
"Cn1cc(NC(=O)c2ccc(F)c([C@@H]3C[C@H]3NCC3CC3)c2)cn1 (relative stereo) [Example 237, 3-(trans-2-((cyclopropylmethyl)amino)cyclopropyl)-4-fluoro-N-(1-methyl-1H-pyrazol-4-yl)benzamide dihydrochloride]",–,–,90.3%,98.8%,83.9%,91.9%,96.5%,86.7%,< 0.1 µM,> 10 µM,> 10 µM,"concentration at 0.5 h [3, 6]: 237 ng/g; concentration at 0.5 h [3, 7]: 523 ng/mL"
"O=C(NC1CC(F)(F)C1)c1ccc(F)c([C@@H]2C[C@H]2NCC2CC2)c1 (relative stereo) [Example 240, 3-(trans-2-((cyclopropylmethyl)amino)cyclopropyl)-N-(3,3-difluorocyclobutyl)-4-fluorobenzamide hydrochloride]",–,–,90.7%,95.5%,82.3%,94.7%,98.7%,109.4%,< 0.1 µM,> 10 µM,> 10 µM,"concentration at 0.5 h [3, 6]: 329 ng/g; Kp at 0.5 h ([3]; hippocampus/plasma, 0.5 hr after administration, read-out: hippocampus/plasma concentration ratio (mean)): 1.31; concentration at 0.5 h [3, 7]: 247 ng/mL"
"Cc1nnc(NC(=O)c2cccc(C3CC3NCC3CC3)c2)s1 (single isomer, unassigned) [Example 97, 3-(trans-2-((cyclopropylmethyl)amino)cyclopropyl)-N-(5-methyl-1,3,4-thiadiazol-2-yl)benzamide hydrochloride (Optical Isomer, Retention Time Short)]",–,–,105.2^c %,105.0^c %,100.7^c %,–,–,–,–,–,–,"Gad1 H3K4me2 induction activity (%) ([1]; compound 1 μM): 100%; Gad1 H3K4me2 induction activity (%) ([1]; compound 10 μM): 111%; platelet number, percentage of compound administration group compared to control group, mean ([2]; 1 mg/kg): 99.4^b %; red blood cell number, percentage of compound administration group compared to control group, mean ([2]; 1 mg/kg): 102.7^b %; white blood cell number, percentage of compound administration group compared to control group, mean ([2]; 1 mg/kg): 114.4^b %"
"Cc1nnc(NC(=O)c2cccc(C3CC3NCC3CC3)c2)s1 (single isomer, unassigned) [Example 98, 3-(trans-2-((cyclopropylmethyl)amino)cyclopropyl)-N-(5-methyl-1,3,4-thiadiazol-2-yl)benzamide hydrochloride (Optical Isomer, Retention Time Long)]",114%,–,102.0^c %,105.6^c %,106.5^c %,–,–,–,–,–,–,"Gad1 H3K4me2 induction activity (%) ([1]; compound 10 μM): 133%; platelet number, percentage of compound administration group compared to control group, mean ([2]; 1 mg/kg): 105.4^b %; red blood cell number, percentage of compound administration group compared to control group, mean ([2]; 1 mg/kg): 103.6^b %; white blood cell number, percentage of compound administration group compared to control group, mean ([2]; 1 mg/kg): 96.5^b %"
